PubChem BioAssay AID292 (DTP/NCI, 2004)
Values joined by “and” are separate entries in the source; they are usually repeats but may differ in a detail not shown here. Identical values can stand only once. Toxic doses and inconclusive results are not listed. Rule for the calls: active = survival T/C of 150% or more; inactive = T/C below 125% in these data.

Test system: B6C3F1 mice, ip Sarcoma M5076, median survival T/C
Assay: NCI In Vivo Anticancer Drug Screen. Data for tumor model Sarcoma M5076 (intraperitoneal) in B6C3F1 mice
Details: endpoint: median survival time, higher = longer survival
Method in brief: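 Mice carrying the transplanted tumour received compound treatment. Survival was recorded, and each value is the treated-group measurement divided by that of the vehicle-dosed control group.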

[1] = dose: 25.0 mg/kg/injection, schedule: Q04DX004 (ip), vehicle: saline with Tween-80
[2] = dose: 50.0 mg/kg/injection, schedule: Q04DX004 (ip), vehicle: saline with Tween-80
[3] = dose: 100.0 mg/kg/injection, schedule: Q04DX004 (ip), vehicle: saline with Tween-80
[4] = dose: 200.0 mg/kg/injection, schedule: Q04DX004 (ip), vehicle: saline with Tween-80
[5] = dose: 400.0 mg/kg/injection, schedule: Q04DX004 (ip), vehicle: saline with Tween-80
[6] = dose: 50.0 mg/kg/injection, schedule: Q04DX004 (ip), vehicle: Klucel (hydroxypropylcellulose) (HPC)
[7] = dose: 100.0 mg/kg/injection, schedule: Q04DX004 (ip), vehicle: Klucel (hydroxypropylcellulose) (HPC)
[8] = dose: 400.0 mg/kg/injection, schedule: Q04DX004 (ip), vehicle: Klucel (hydroxypropylcellulose) (HPC)
[9] = dose: 25.0 mg/kg/injection, schedule: Q04DX004 (ip), vehicle: Klucel (hydroxypropylcellulose) (HPC)
[10] = dose: 18.75 mg/kg/injection, schedule: Q04DX004 (ip), vehicle: saline with Tween-80
[11] = dose: 37.5 mg/kg/injection, schedule: Q04DX004 (ip), vehicle: saline with Tween-80
[12] = dose: 75.0 mg/kg/injection, schedule: Q04DX004 (ip), vehicle: saline with Tween-80
[13] = dose: 200.0 mg/kg/injection, schedule: Q04DX004 (ip), vehicle: Klucel (hydroxypropylcellulose) (HPC)
[14] = dose: 6.25 mg/kg/injection, schedule: Q04DX004 (ip), vehicle: saline with Tween-80
[15] = dose: 12.5 mg/kg/injection, schedule: Q04DX004 (ip), vehicle: saline with Tween-80
[16] = dose: 100.0 mg/kg/injection, schedule: Q04DX004 (ip), vehicle: suspension in saline
[17] = dose: 200.0 mg/kg/injection, schedule: Q04DX004 (ip), vehicle: suspension in saline
[18] = dose: 400.0 mg/kg/injection, schedule: Q04DX004 (ip), vehicle: suspension in saline

Measured: T/C

O=C1N(Cl)C(=O)C(c2ccc(Cl)cc2)(c2ccc(Cl)cc2)N1Cl
inactive: [1] 102 % of control | [2] 102 % of control | [3] 96 % of control

COc1ccc(NC(=O)/N=C2\CN(C(=O)c3c(F)cccc3F)C(=O)N2c2ccc(OC)cc2)cc1
inactive: dose: 3.0 mg/kg/injection, schedule: Q04DX004 (ip), vehicle: saline with Tween-80 95 % of control | dose: 6.0 mg/kg/injection, schedule: Q04DX004 (ip), vehicle: saline with Tween-80 100 % of control | dose: 12.0 mg/kg/injection, schedule: Q04DX004 (ip), vehicle: saline with Tween-80 102 % of control | dose: 24.0 mg/kg/injection, schedule: Q04DX004 (ip), vehicle: saline with Tween-80 95 % of control | dose: 48.0 mg/kg/injection, schedule: Q04DX004 (ip), vehicle: saline with Tween-80 95 % of control

COC(=O)Nc1cccc(-c2nc3ccc(NC(=O)OC)cc3c(=O)n2-c2ccccc2)c1
active: dose: 133.0 mg/kg/injection, schedule: Q04DX004 (ip), vehicle: Klucel (hydroxypropylcellulose) (HPC) 167 % of control

Cc1cc(Br)c2nsnc2c1[N+](=O)[O-]
inactive: [2] 96 % of control | [3] 112 % of control | [4] 104 % of control | [5] 103 % of control | dose: 800.0 mg/kg/injection, schedule: Q04DX004 (ip), vehicle: saline with Tween-80 87 % of control

COc1nc(C(Cl)(Cl)Cl)c(Cl)c(OC)c1Cl
active: dose: 179.0 mg/kg/injection, schedule: Q04DX004 (ip), vehicle: Klucel (hydroxypropylcellulose) (HPC) 152 % of control | [8] 168 % of control
inactive: [6] 99 % of control | [7] 114 % of control | dose: 179.6 mg/kg/injection, schedule: Q04DX004 (ip), vehicle: Klucel (hydroxypropylcellulose) (HPC) 121 % of control

Cc1ccc2c(c1)C1(C)OC(C=CC1=O)O2 (stereo unspecified)
inactive: [9] 96 % of control | [6] 103 % of control

Clc1ccc(OCC(Cn2ccnc2)c2ccc(Cl)cc2)cc1 (stereo unspecified)
inactive: [10] 115 % of control | [11] 102 % of control | [12] 101 % of control

O=C(CSc1nnc(-c2ccc(Cl)cc2)s1)Nc1nccs1
inactive: dose: 5.0 mg/kg/injection, schedule: Q04DX004 (ip), vehicle: saline with Tween-80 101 % of control | dose: 10.0 mg/kg/injection, schedule: Q04DX004 (ip), vehicle: saline with Tween-80 95 % of control | dose: 20.0 mg/kg/injection, schedule: Q04DX004 (ip), vehicle: saline with Tween-80 93 % of control | [11] 90 % of control | dose: 40.0 mg/kg/injection, schedule: Q04DX004 (ip), vehicle: saline with Tween-80 88 % of control | dose: 80.0 mg/kg/injection, schedule: Q04DX004 (ip), vehicle: saline with Tween-80 88 % of control

O=C(Nc1ccccc1)C1C(=O)C(=O)N(c2ccccc2)C1=O (stereo unspecified)
inactive: [9] 99 % of control | [6] 90 % of control | [7] 92 % of control | [13] 95 % of control | [8] 95 % of control

O=C/C(Cl)=C(/Cl)C(=O)O
inactive: [14] 92 % of control | [15] 104 % of control and 110 % of control | [1] 109 % of control and 119 % of control

N[C@@H](Cc1c[nH]c2ccccc12)C(=O)Nc1nncs1
inactive: dose: 16.67 mg/kg/injection, schedule: Q03HX012 (ip), vehicle: saline 102 % of control | dose: 33.34 mg/kg/injection, schedule: Q03HX012 (ip), vehicle: saline 101 % of control | dose: 66.67 mg/kg/injection, schedule: Q03HX012 (ip), vehicle: saline 109 % of control | [16] 95 % of control | dose: 133.34 mg/kg/injection, schedule: Q03HX012 (ip), vehicle: saline 120 % of control | [17] 111 % of control | dose: 266.67 mg/kg/injection, schedule: Q03HX012 (ip), vehicle: saline 120 % of control | [18] 101 % of control | dose: 800.0 mg/kg/injection, schedule: Q04DX004 (ip), vehicle: suspension in saline 118 % of control

O=C(NC(Cc1ccc(I)cc1)C(=O)O)c1ccc(Br)cc1 (stereo unspecified)
inactive: dose: 25.0 mg/kg/injection, schedule: Q04DX004 (ip), vehicle: sodium bicarbonate 102 % of control | dose: 50.0 mg/kg/injection, schedule: Q04DX004 (ip), vehicle: sodium bicarbonate 105 % of control | dose: 100.0 mg/kg/injection, schedule: Q04DX004 (ip), vehicle: sodium bicarbonate 97 % of control | dose: 200.0 mg/kg/injection, schedule: Q04DX004 (ip), vehicle: sodium bicarbonate 104 % of control | dose: 400.0 mg/kg/injection, schedule: Q04DX004 (ip), vehicle: sodium bicarbonate 90 % of control

C=CC(=O)OCCOCN(COCCOC(=O)C=C)c1nc(N(COCCOC(=O)C=C)COCCOC(=O)C=C)nc(N(COCCOC(=O)C=C)COCCOC(=O)C=C)n1
inactive: [10] 103 % of control | [11] 100 % of control | [12] 110 % of control | dose: 150.0 mg/kg/injection, schedule: Q04DX004 (ip), vehicle: saline with Tween-80 104 % of control

C1OC1CO[C@@H]1CO[C@H]2[C@@H]1OC[C@H]2OCC1CO1 (stereo partly specified)
active: [16] 150 % of control | dose: 200.0 mg/kg/injection, schedule: Q04DX004 (ip), vehicle: saline 186 % of control | [17] 215 % of control | dose: 400.0 mg/kg/injection, schedule: Q04DX004 (ip), vehicle: saline 183 % of control | [18] 239 % of control
inactive: dose: 50.0 mg/kg/injection, schedule: Q04DX004 (ip), vehicle: saline 119 % of control | dose: 50.0 mg/kg/injection, schedule: Q04DX004 (ip), vehicle: suspension in saline 119 % of control

Nc1ccc(S(=O)(=O)Nc2cnc3c(Cl)cccc3n2)cc1
inactive: dose: 100.0 mg/kg/injection, schedule: Q04DX004 (ip), vehicle: DMSO 104 % of control | dose: 200.0 mg/kg/injection, schedule: Q04DX004 (ip), vehicle: DMSO 102 % of control | dose: 400.0 mg/kg/injection, schedule: Q04DX004 (ip), vehicle: DMSO 93 % of control

O=S(Cl)C(Cl)=C(Cl)Cl (stereo unspecified)
inactive: [9] 86 % of control

CCNC(=O)[B-][N+](C)(C)C
inactive: [2] 96 % of control | [3] 104 % of control | [4] 102 % of control | [5] 92 % of control

COc1ccccc1NC(=O)C1C(=O)C(=O)N(c2ccccc2OC)C1=O (stereo unspecified)
inactive: [6] 105 % of control | [7] 97 % of control | [13] 96 % of control

CN1[C@H]2C=CC(=O)[C@]1(Cl)[C@H]1C(=O)N(c3ccccc3)C(=O)[C@@H]21
inactive: [1] 102 % of control and 107 % of control | [2] 101 % of control and 107 % of control | [3] 95 % of control and 100 % of control | [4] 94 % of control | [5] 101 % of control

O=C1C2CC=CCC2C(=O)N1SC(Cl)(Cl)Cl (stereo unspecified)
inactive: dose: 3.13 mg/kg/injection, schedule: Q04DX004 (ip), vehicle: saline with Tween-80 110 % of control | [14] 120 % of control | [15] 91 % of control | [1] 100 % of control

Oc1cccc2ccccc12
inactive: dose: 25.0 mg/kg/injection, schedule: Q04DX004 (ip), vehicle: water 100 % of control | dose: 50.0 mg/kg/injection, schedule: Q04DX004 (ip), vehicle: water 105 % of control | dose: 100.0 mg/kg/injection, schedule: Q04DX004 (ip), vehicle: water 98 % of control
